{"source": "patent US7309579B2", "about": "“Method for screening for activators of soluble guanylate cyclase having oxidized heme iron” (Sanofi-Aventis Deutschland GmbH, priority 1999, dated 2007)", "key": {"[1]": {"molecular_target": "T1, heme-free soluble guanylate cyclase (Bos taurus, UniProt P16068)", "T1 sequence (P16068 1-619)": "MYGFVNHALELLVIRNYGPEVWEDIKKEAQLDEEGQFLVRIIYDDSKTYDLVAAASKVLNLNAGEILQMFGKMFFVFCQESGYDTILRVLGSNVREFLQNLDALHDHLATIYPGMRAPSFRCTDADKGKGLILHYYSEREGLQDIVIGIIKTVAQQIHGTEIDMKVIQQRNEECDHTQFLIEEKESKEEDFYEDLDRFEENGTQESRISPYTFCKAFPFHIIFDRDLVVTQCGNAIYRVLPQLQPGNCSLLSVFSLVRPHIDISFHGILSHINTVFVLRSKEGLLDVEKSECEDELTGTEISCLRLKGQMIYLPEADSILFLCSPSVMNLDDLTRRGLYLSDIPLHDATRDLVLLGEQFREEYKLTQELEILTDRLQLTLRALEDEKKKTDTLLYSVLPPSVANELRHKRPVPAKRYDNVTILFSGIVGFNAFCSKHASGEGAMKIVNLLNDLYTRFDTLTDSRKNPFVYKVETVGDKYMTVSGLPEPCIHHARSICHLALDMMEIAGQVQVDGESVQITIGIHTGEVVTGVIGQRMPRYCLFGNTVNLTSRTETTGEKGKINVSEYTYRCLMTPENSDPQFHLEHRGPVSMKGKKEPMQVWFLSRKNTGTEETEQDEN", "T1 sequence (P19687 1-691 partner)": "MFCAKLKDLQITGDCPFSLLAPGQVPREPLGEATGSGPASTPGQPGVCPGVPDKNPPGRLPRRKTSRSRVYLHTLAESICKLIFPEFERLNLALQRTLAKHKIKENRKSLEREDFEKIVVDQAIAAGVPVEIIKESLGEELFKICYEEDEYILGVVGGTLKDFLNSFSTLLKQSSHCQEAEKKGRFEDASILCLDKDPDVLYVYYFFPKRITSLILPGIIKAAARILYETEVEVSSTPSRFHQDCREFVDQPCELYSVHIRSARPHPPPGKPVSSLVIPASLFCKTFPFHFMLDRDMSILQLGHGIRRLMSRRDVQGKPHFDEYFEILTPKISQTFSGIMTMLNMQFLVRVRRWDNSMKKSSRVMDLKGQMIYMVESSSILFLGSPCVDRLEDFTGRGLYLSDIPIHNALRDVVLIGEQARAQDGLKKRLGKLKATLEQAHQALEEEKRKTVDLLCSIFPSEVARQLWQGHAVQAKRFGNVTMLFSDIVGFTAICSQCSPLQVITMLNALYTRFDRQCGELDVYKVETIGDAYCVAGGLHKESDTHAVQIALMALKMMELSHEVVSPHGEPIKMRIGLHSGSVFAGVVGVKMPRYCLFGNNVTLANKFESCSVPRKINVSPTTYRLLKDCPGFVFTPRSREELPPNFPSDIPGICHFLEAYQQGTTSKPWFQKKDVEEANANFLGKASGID", "assay": "Activation of heme-free soluble guanylate cyclase", "format": "biochemical, bovine", "description": "(§1) Soluble guanylate cyclase (sGC) catalyzes the conversion of GTP into cGMP and pyrophosphate. In the presence of nicotinamide adenine dinucleotide (NAD^+) and nicotinamide mononucleotide adenylyltransferase (NAT, EC 2.7.7.1), pyrophosphate is converted into ATP and nicotinamide mononucleotide. The ATP formed can be quantified luminometrically with the aid of a luciferase in microtiter plates.\n(§2) The substance to be investigated is dissolved in DMSO and diluted with DMSO/water to a final concentration of 50 μM in the assay mixture. The DMSO concentration in the assay mixture should not exceed 5% (v/v).\n(§3) 100 μl of reaction mixture should contain 50 mM TEA buffer (pH 7.4), 3 mM MgCl2, 3 mM GSH, 0.1 mM GTP, 1 mM IBMX (isobutylmethylxanthine), 0.2 mM NAD^+, 0.4 mU of NAT, suitably diluted sGC enzyme solution (isolated from bovine lung as described by P. Humbert et al., Methods of Enzymology 195, 384-391 (1991)) and the test substance or solvent (for determining the basal enzyme activity). The reaction is started by adding the sGC. The reaction mixture is incubated at room temperature for 60 min and then stopped by cooling in ice and adding 50 mM EDTA, pH 8.0. […] The relative luminescence units (RLU) can be measured in a microtiter plate luminometer.\n(§4) The sGC activity is obtained after subtracting the blank RLU (incubation without enzyme) from the measured RLU. […]"}, "[2]": {"molecular_target": "T2, soluble guanylate cyclase with a trivalent heme iron (Bos taurus, UniProt P16068)", "T2 construct": "suitably diluted sGC enzyme solution (isolated from bovine lung); from tissue; host or cells: bovine lung", "T2 sequence (P16068 1-619)": "T1 sequence (P16068 1-619)", "T2 sequence (P19687 1-691 partner)": "T1 sequence (P19687 1-691 partner)", "assay": "Activation of soluble guanylate cyclase after oxidation of the heme iron (enzyme stored at 4° C. for about 7 days)", "format": "biochemical, bovine", "details": "sGC with trivalent heme iron, prepared by storing freshly prepared enzyme at 4° C. for about 7 days", "description": "as §1, §2, §3, §4"}}}
{"smiles": "COc1cc(NS(=O)(=O)c2ccc(Cl)cc2)c(C(=O)Nc2ccc(S(=O)(=O)N3CCSCC3)cc2)cc1OC", "note": "[2-(4-chlorophenylsulfonylamino)-4,5-dimethoxy-N-(4-(thiomorpholine-4-sulfonyl)phenyl)benzamide]", "values": [{"measurement": "stimulation of the activity", "setting": "[1]", "result": 58.2, "unit": "fold"}, {"measurement": "EC50", "setting": "[1]; read-out: affinity", "result": 2.4, "unit": "µM"}, {"measurement": "EC50", "setting": "[2]", "result": 0.5, "unit": "µM"}, {"measurement": "stimulation of the activity", "setting": "[2]", "result": 17.6, "unit": "fold"}]}
